Square brackets hold non-standard residues; d marks the D form. Peptide text beside a SMILES is read from it. * marks the point of attachment. Dolaproine = CO[C@@H]([C@@H]1CCCN1)[C@@H](C)C(=O)O; Dil = CC[C@H](C)[C@H](NC)[C@@H](CC(=O)O)OC; X1 = C[C@@H](N*)[C@@H](O)c1ccccc1; NMeV = CN[C@H](C(=O)O)C(C)C

For assay [1], the system named is KB, T-47D, NCI-H460, CALU-3, HuH-7, and LNCaP tumor cell lines. Kind of assay: Inhibition of tumor cell expansion, CCK8 (CB-20BK). Format: cell-based, human. Here is the method: Cell lines: KB human oral epidermoid carcinoma cells, T-47D human breast cancer cells, NCI-H460 human lung cancer cells, CALU-3 human lung adenocarcinoma cells, HuH-7 human liver cancer cells and LNCaP human prostate cancer cells
The cells were prepared in advance, digested with trypsin, collected and counted; with a complete cell culture medium, KB cells were diluted to 2.5×10^4 cells/ml, T-47D cells were diluted to 1.3×10^4 cells/ml, NCI-H460 cells were diluted to 3.5×10^4 cells/ml, CALU-3 cells were diluted to 4.0×10^4 cells/ml, HuH-7 cells were diluted to 3.0×10^4 cells/ml, and LNCaP cells were diluted to 8.0×10^4 cells/ml; 100 μl of the diluted cell solution was added to each well of 96-well plates; and negative control and blank control wells were set on each plate. The 96-well plates added with the cells were placed in an incubator at 37° C., 5% CO2 for culturing overnight.
The samples were diluted with a culture medium to desired concentrations (see Table 8). […]
To each well, 15 μl (10% of the liquid volume in a well) of a color developing solution from CCK-8 was added; the plates were incubated at 37° C. for an appropriate time (try to keep the OD value in the range of 1.0-2.0); the covers of the 96-well plates were removed, and the plates were read at 450 nm on a microplate reader (Molecular Devices Spectra MAX Plus). […]

The test system of assay [2] is KB, MIA paca-2, HCC1954, CALU-3 and DU145 cell lines (CDX tumor models). Kind of assay: Pharmacodynamic study 1 of CB-20BK in CDX models. The conditions noted are these: tail vein injection. Format: in vivo, BALB/c-nude mice. Here is the method: CB-20BK lyophilized powder was weighed, dissolved with PBS and prepared into a sample mother solution, and the mother solution was diluted with a physiological saline for injection to a sample solution with a working concentration for later use.
Main cell lines: KB human oral epidermoid carcinoma cells, MIA paca-2 human pancreatic cancer cells, HCC1954 human breast cancer cells, CALU-3 human lung adenocarcinoma cells and DU145 human prostate cancer cells.
Model construction: The cells were resuscitated, cultured, collected, counted, and subcutaneously injected into the right flank of BALB/c-nude mice. When the tumor grew and expanded to 80-160 mm^3, grouping and administration were performed, or rapidly expanded tumor masses were transferred and injected to mice for scale up.
Grouping: When the tumor grew to about 80-160 mm^3 on average, a grouping was performed, and a model control group and different doses of administration groups were set.
Administration: The mice were administrated via tail vein injection.
The weight of mice and the long diameter (a) and short diameter (b) of tumor mass were measured twice a week. The formula for the calculation of tumor volume (TV) is: TV=½×a×b^2.

Assay [3] deals with T1, FOLH1 (Homo sapiens, UniProt Q04609). The experiment in a line: Gator binding affinity to FOLH1 (SA probe with Biotin-CB-20BK, analyte FOLH1). On the set-up: purchased Sino Biologicals 15877-H07H. Here is the method: SA probe (Probe Life, Cat #: 1906018)
Buffer: Q buffer (Probe Life), 10 mM, pH=7.4
(2) The experiment was carried out according to Gator™ (Probe Life) instruction manual to determine the binding affinity of Biotin-CB-20BK to FOLH1. In the experiment, SA probe binds to ligand Biotin-CB-20BK, and the analyte is FOLH1 (Sino Biologicals, Cat #: 15877-H07H).
Target sequence in this assay (Q04609 44-750 limits assumed): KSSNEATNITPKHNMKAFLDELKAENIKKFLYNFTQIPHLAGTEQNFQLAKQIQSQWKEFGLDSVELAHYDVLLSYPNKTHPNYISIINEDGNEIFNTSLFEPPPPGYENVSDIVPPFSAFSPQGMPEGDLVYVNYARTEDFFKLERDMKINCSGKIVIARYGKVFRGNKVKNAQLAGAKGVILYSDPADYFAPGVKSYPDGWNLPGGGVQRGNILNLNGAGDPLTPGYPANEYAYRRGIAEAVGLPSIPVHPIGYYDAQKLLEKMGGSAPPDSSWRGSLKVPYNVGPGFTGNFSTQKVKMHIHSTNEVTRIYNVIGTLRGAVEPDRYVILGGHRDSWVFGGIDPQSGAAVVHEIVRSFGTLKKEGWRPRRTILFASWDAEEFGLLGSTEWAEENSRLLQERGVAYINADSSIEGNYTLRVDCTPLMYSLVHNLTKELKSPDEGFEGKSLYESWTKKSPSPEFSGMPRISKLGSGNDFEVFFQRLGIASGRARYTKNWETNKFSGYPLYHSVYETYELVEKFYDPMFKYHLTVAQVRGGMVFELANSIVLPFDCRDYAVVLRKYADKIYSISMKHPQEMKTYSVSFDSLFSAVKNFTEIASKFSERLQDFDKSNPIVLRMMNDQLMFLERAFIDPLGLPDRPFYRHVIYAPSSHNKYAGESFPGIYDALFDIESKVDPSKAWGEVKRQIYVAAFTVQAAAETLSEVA

Assay [4] addresses T1, FOLH1. Kind of assay: BIAcore T200: binding of FOLH1 to compound-FOLR1 complex. Details: purchased Sino Biologicals (FOLH1); R&D System (FOLR1) 15877-H07H (FOLH1); 5646-FR (FOLR1). The text has this:
CM5 chip was conjugated with a ligand: FOLR1 (R&D System, Cat #: 5646-FR)
Analyte: CB-20BK, FA-MMAE and FOLH1 (Sino Biologicals, Cat #: 15877-H07H)
According to BIAcore T200 (GE) operating manual, FOLR1 was conjugated to the CM5 chip; CB-20BK or FA-MMAE was loaded first, and then FOLH1 was loaded; and the binding of FOLH1 to the CB-20BK-FOLR1 complex was detected.
Target sequence in this assay (Q04609 44-750 limits assumed): as above
Target sequence in this assay (P15328 25-233 partner limits assumed): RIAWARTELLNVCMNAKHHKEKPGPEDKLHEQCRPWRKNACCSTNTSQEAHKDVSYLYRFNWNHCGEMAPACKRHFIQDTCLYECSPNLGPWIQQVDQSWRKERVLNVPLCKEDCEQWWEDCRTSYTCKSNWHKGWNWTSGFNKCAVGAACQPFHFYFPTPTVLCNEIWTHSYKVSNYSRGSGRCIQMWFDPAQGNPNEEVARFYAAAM

Assay [5] has as its system SK-BR-3 (human breast cancer cells). Kind of assay: Inhibition of cell line proliferation, CCK8. The format is cell-based. The conditions noted are these: SK-BR-3, 68-72 hours, CCK8. Here is the method: Experimental operations: LNCaP, SK-BR-3, NCI-H226, CFPAC-1 and PANC-1 cells were prepared in advance and counted; with a culture medium (IMDM+10% FBS+1× L-Glutamine+1×P/S), the cells LNCaP, SK-BR-3 and CFPAC-1 were diluted to 4×10^4 cells/ml, NCI-H226 was diluted to 2.0×10^4 cells/ml and PANC-1 was diluted to 3.0×10^4 cells/ml; the diluted cell solution was plated in 96-well plates at 100 μl/well; and negative control and blank control wells were set on each plate. After adherent cell culture overnight, the diluted samples to be tested were added at 50 μl/well. The plates were placed in an incubator at 37° C., 5% CO2 and cultured for 68-72 hours. To each well, 15 μl (10% of the liquid volume in a well) of a color developing solution from CCK8 was added; and the plates were incubated at 37° C. for 45-70 minutes and each plate was read at 450 nm on a microplate reader. The data was edited using SoftMax Pro and a 4-P fitting curve was plotted.
Experimental Operations: LNCaP, SK-BR-3, MDA-MB-468 and CFPAC-1 cells were prepared in advance and counted; with a culture medium (IMDM+10% FBS+1× L-Glutamine+1×P/S), the cells LNCaP, SK-BR-3, MDA-MB-468 and CFPAC-1 were diluted to 4×10^4 cells/ml; the diluted cell solution was plated in 96-well plates at 100 µl/well; and negative control and blank control wells were set on each plate. After adherent cell culture overnight, the diluted samples to be tested were added at 50 μl/well. The plates were placed in an incubator at 37° C., 5% CO2 and cultured for 68-72 hours. To each well, 15 μl (10% of the liquid volume in a well) of a color developing solution from CCK8 was added; and the plates were incubated at 37° C. for 45-70 minutes and each plate was read at 450 nm on a microplate reader. The data was edited using SoftMax Pro and a 4-P fitting curve was plotted.

With `CC[C@H](C)[C@@H]([C@@H](CC(=O)N1CCC[C@H]1[C@H](OC)[C@@H](C)C(=O)N[C@H](C)[C@@H](O)c1ccccc1)OC)N(C)C(=O)[C@@H](NC(=O)[C@H](C(C)C)N(C)C(=O)OCc1ccc(NC(=O)C(CCCNC(N)=O)NC(=O)[C@@H](NC(=O)CCCCCN2C(=O)CC(SC[C@H](NC(=O)[C@H](CCCCN)NC(=O)[C@H](CC(=O)O)NC(=O)[C@H](CC(=O)O)NC(=O)Cc3ccc(CNC(=O)NCCCC[C@H](NC(=O)N[C@@H](CCC(=O)O)C(=O)O)C(=O)O)cc3)C(=O)N[C@@H](CCCCNC(=O)CC[C@H](NC(=O)c3ccc(NCc4cnc5[nH]c(N)nc(=O)c5n4)cc3)C(=O)O)C(N)=O)C2=O)C(C)C)cc1)C(C)C` (stereo partly shown) [CB-20BK], the “inhibitory effect on growth and expansion of tumor cell lines” value in assay [1] (72 hours, CCK-8) was “has an inhibitory effect”. In assay [1] (T-47D, KB, LNCaP, HuH-7 and CALU-3 versus NCI-H460), the “IC50 compared between cell lines” value is reported as “significantly lower”. Further, the “inhibitory effect in CDX tumor models (tumor volume)” value in assay [2] is listed as “good inhibitory effect”. In addition, the “binding to FOLH1 (in words)” value on FOLH1 [3] is recorded as “binds to FOLH1 with a good affinity”. Besides, the “Binding of compound-FOLR1 complex to FOLH1 solution” value was −0.9 RU at FOLH1 [4] (FOLH1 concentration 0.0625 μM), 4.6 RU at FOLH1 [4] (FOLH1 concentration 0.125 μM), 14.1 RU on FOLH1 [4] (FOLH1 concentration 0.25 μM) and 23.9 RU on FOLH1 [4] (FOLH1 concentration 0.5 μM). Also, at FOLH1 [4] (FOLH1 solution at a high concentration), the “amount of FOLH1 bound to compound-FOLR1 complex (in words)” value is “significantly higher than that bound to an FA-MMAE-FOLR1 complex”.

In turn, `CC[C@H](C)[C@@H]([C@@H](CC(=O)N1CCC[C@H]1[C@H](OC)[C@@H](C)C(=O)N[C@H](C)[C@@H](O)c1ccccc1)OC)N(C)C(=O)[C@@H](NC(=O)[C@@H](NC)C(C)C)C(C)C` [MMAE, monomethyl auristatin E] (H-[NMeV]V[Dil][Dolaproine]-X1) registered an IC50 in assay [5] of 2 nM. That is a single-digit nanomolar value.

The values are drawn from patent US20220175761A1, “BI-LIGAND DRUG CONJUGATE AND USE THEREOF” (COHERENT BIOPHARMA (SUZHOU), LIMITED, priority 2019, published 2022).
